Experimental data published in patent publication US20040170959A1, “Methods for identifying antiviral oligonucleotides” (priority 2002, published 2004).

What was measured:
Hep2 cells = conditions: uninfected cells treated 7 days
[1] = human, in vivo; cited from earlier work
Hepatitis C virus (HCV) = conditions: prolonged therapy; cited from earlier work

For `NC(=O)c1ncn([C@@H]2O[C@H](CO)[C@@H](O)[C@H]2O)n1` [Ribavirin], the “toxicity in Hep2 cells” value (Hep2 cells) was “significantly toxic”.

In the case of `Nc1nc(O)c2ncn(COC(CO)CO)c2n1` [ganciclovir], the “neutropenia and thrombocytopenia, share of patients treated” value [1] is listed as 40%.

In the case of `O=c1[nH]c(=O)n([C@H]2C[C@H](O)[C@@H](CO)O2)cc1I` [idoxuridine], the “allergic reactions, share of patients treated” value [1] is given as 35%.

In the case of interferon alpha, the “share of patients in whom therapy is effective” value (Hepatitis C virus (HCV)) is given as “about 40% of patients”.
